Source: patent US10316064B2, “Teicoplanin analogs and uses thereof” (Academia Sinica, priority 2014, dated 2019)
In brackets after ≈: the same amount, converted by molar mass. Where two headings read alike, the source gives them in different places.

Columns and labels:
Orf11*/Dbv8 = assay: Isothermal titration calorimetry (ITC) analysis of substrate-enzyme affinity; format: binding; details: ligand injected into protein solution (0.1 mM)
Procedure: (§1) ITC thermograms of Orf11* versus CoA, acetyl-CoA, butyryl-CoA, hexanoyl-CoA, octanoyl-CoA, decanoyl-CoA, lauroyl-CoA, myristoyl-CoA, palmitoyl-CoA, stearoyl-CoA or Tei-pseudoaglycone. Each exothermic heat pulse corresponds to an injection of 2 μl of ligands (1 mM˜5 mM) into a protein solution (0.1 mM); integrated heat areas constitute a differential binding curve that was fitted with a standard single-site binding model (Origin 7.0, MicroCal iTC200).
(§2) Protein expression, purification and confirmation of purity were performed according to standard protocols. Acyl-CoA analogs were chemically synthesized as described previously (Huang, Y. T. et al. In vitro characterization of enzymes involved in the synthesis of nonproteinogenic residue (2S,3S)-beta-methylphenylalanine in glycopeptide antibiotic mannopeptimycin. Chembiochem 10, 2480-2487, doi:10.1002/cbic.200900351 (2009); Li, T. L., Spiteller, D. & Spencer, J. B. Identification of a pentaketide stilbene produced by a type III polyketide synthase from Pinus sylvestris and characterisation of free coenzyme A intermediates. Chembiochem 10, 896-901, doi:10.1002/cbic.200800840 (2009)). Single-wavelength anomalous dispersion (SAD) and molecular replacement (MR) methods were used to solve structures of native and complex Orf11*/Dbv8. Mutants were made by using QuickChange®. Biochemical analyses for wild type protein and mutants were performed using LC-MS. Oligomerization states of the proteins in solution were determined by gel filtration chromatography and analytical ultracentrifugation (AUC). Substrate-enzyme affinity was determined using isothermal titration calorimetry (ITC). Biological assays were performed according standard protocols.

Orf11* = biological target: T1, Orf11* (Actinoplanes teichomyceticus, UniProt Q70AY4); assay: isothermal titration calorimetry (ITC) of acyl-CoA ligands versus Orf11* (FIG. 9); format: binding
T1 sequence (Q70AY4 1-323): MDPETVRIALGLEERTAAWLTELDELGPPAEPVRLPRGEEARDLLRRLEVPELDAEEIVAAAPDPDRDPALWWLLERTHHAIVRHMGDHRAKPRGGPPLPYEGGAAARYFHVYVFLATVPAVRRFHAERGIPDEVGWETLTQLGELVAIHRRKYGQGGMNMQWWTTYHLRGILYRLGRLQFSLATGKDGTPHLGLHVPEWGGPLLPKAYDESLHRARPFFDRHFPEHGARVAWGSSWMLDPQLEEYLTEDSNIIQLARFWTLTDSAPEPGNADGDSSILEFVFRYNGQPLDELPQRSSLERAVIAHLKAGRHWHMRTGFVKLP
Procedure: as §1
The orf11* and dbv8 genes were amplified and subcloned into the expression vector pET28a(+). The clones were transformed into E. coli BL21(DE3) for protein over-expression. A typical procedure is described as follows: One liter of LB medium containing 50 mg/L kanamycin was inoculated with 10 mL of an overnight culture grown in LB medium (containing 50 mg/L kanamycin), induced with 1 mL 1.0M IPTG (to give 1.0 mM; exact concentrations varied between proteins) at an OD600 of 0.7, and grown for a further 8 hours at 16° C. Cells were harvested by centrifugation at 6000 rpm for 20 min at 4° C., resuspended in 30 mL binding buffer (50 mM Tris at pH 8.0, 500 mM NaCl, 10 mM imidazole, 10% glycerol) and disrupted by microfluidizer. The cell lysate was centrifuged at 18000 rpm for 30 minutes to remove cell debris. The supernatant was applied to a Ni^2+-NTA agarose resin column (2 mL, Novagen) pre-equilibrated with binding buffer. The column was washed sequentially with 20 mL of binding buffer and 10 mL washing buffer (50 mM Tris at pH 8.0, 500 mM NaCl, 50 mM imidazole, 10% glycerol). The bound protein then was eluted with 10 mL of elution buffer (50 mM Tris at pH 8.0, 500 mM NaCl, 250 mM imidazole, 10% glycerol). Gel filtration was performed using an Äkta FPLC system equipped with an S-200 Superdex column (Amersham Bioscience) under isocratic conditions (50 mM Tris at pH 8.0, 500 mM NaCl). The buffer was exchanged using Millipore centrifugal filters and HEPES buffer (50 mM, pH 8.0). Protein purity was determined by SDS-PAGE and Western blotting, and electrospray mass spectrometry (ESI-MS). Protein concentrations were estimated using the Bradford assay.
as §2
The GNAT domain in Orf11*/Dbv8 differs from the canonical GNAT fold as it lacks the first β strand, and the C-terminus extends with four additional helices (α10-α13). β-Strands β3 and β4 splay apart at C-termini, where Pro198 replaces a typical β-bulge. In a decanoyl-CoA-complexed binary structure (FIG. 2c), the decanoyl-CoA bends in an ‘S’ shape edging in the splayed fingers β3 and β4 (FIG. 8). […]

E. faecalis (ATCC 51559) = assay: Mouse infection treatment study, ED50 (rescue of 50% infected mice); format: in vivo
Procedure: The preliminary ED50 (potency) of the 2-decanoyl,6-octanoyl teicoplanin analog was determined as follows. 6-8 weeks BALB/c female mice were purchased from the National Laboratory Animal Breeding and Research Center, Taipei, Taiwan. Mice with average body weight of 25 to 30 g were subjected to infection via intraperitoneal (i.p.) injection with 1×10^10 cfu/mouse of E. faecalis (ATCC 51559) at day 0. For the treatment study, mice were randomly assigned into five groups at the start of the experiment and administered different amount of either vancomycin, teicoplanin, 2-C10-6-C8-Teicoplanin, or saline (as a blank control) by i.v. twice a day for two days (from day 1 to day 2, a total of 4 doses). The ED50 was determine by the concentration of compounds sufficient to rescue 50% infected mice.

ATCC 700802 = assay: MIC by broth microdilution (NCCLS); format: cell-based
Procedure: (§3) The MIC values were determined by the broth microdilution method, as recommended by the National Committee for Clinical Laboratory Standards (NCCLS). Briefly, overnight cultures of tested bacteria were suspended to a turbidity of 0.1 OD units (1˜5×10^8 CFU/ml). Microtiter plates containing serial dilutions of each antimicrobial agent (0, 1, 2, 4, 8, 16, 32, 64, and 128 μg/ml) were inoculated with each organism to yield the appropriate density (1˜5×10^5 CFU/ml) in a 200 μL final volume. The plates were incubated for 18˜22 h at 37° C.
(§4) MICs were determined as concentrations at which no growth was observed against the strain tested. Experiments were performed in double duplicate. ATCC 29302/ATCC 33186: a standard strain; ATCC 51299: a low-level vancomycin-resistant (VanB type); ATCC 51559: a multidrug-resistant strain (ampicillin, ciprofloxacin, gentamicin, rifampin, teicoplanin and vancomycin, VanA type VRE); ATCC 700221: a strain resistant to vancomycin, VanA type VRE. ATCC 700802 is a strain resistant to gentamicins and vancomycin.

ATCC 29302 = assay: MIC by broth microdilution (NCCLS); format: cell-based
Procedure: as §3, §4

ATCC 700221 = assay: MIC by broth microdilution (NCCLS); format: cell-based
Procedure: as §3, §4

ATCC 51299 = assay: MIC by broth microdilution (NCCLS); format: cell-based
Procedure: as §3, §4

ATCC 33186 = assay: MIC by broth microdilution (NCCLS); format: cell-based
Procedure: as §3, §4

ATCC 51559 = assay: MIC by broth microdilution (NCCLS); format: cell-based, E. faecalis
Procedure: as §3, §4

[1] = ITC, injections of 2 μl of ligand (1 mM˜5 mM) into protein solution (0.1 mM), single-site binding model (Origin 7.0, MicroCal iTC200), Orf11* expressed from pET28a(+) in E. coli BL21(DE3), no mutation stated, read-out: dissociation constant (Kd)
[2] = standard strain, 18~22 h at 37° C.

Molecule: CC(C)(COP(=O)(O)OP(=O)(O)OC[C@H]1O[C@@H](n2cnc3c(N)ncnc32)[C@H](O)[C@@H]1OP(=O)(O)O)[C@@H](O)C(=O)NCCC(=O)NCCSC(=O)CC(=O)O [malonyl-CoA]
- binding to the enzyme (ITC) (Orf11*/Dbv8): does not bind

Molecule: CCCCCCCCCCCCCCCC(=O)SCCNC(=O)CCNC(=O)[C@H](O)C(C)(C)COP(=O)(O)OP(=O)(O)OC[C@H]1O[C@@H](n2cnc3c(N)ncnc32)[C@H](O)[C@@H]1OP(=O)(O)O [palmitoyl-CoA]
- Kd (Orf11*; [1]): 0.4 ± 0.08 µM

Molecule: Teicoplanin
- ED50 against ATCC 51559 (E. faecalis (ATCC 51559); BALB/c female mice infected i.p. with 1×10^10 cfu/mouse, i.v. twice a day for two days (4 doses), amount rescuing 50% infected mice, preliminary): >128 mg/kg
- MIC ATCC 700802 (ATCC 700802; resistant to gentamicins and vancomycin, 18~22 h at 37° C.): 0.5 µg/mL
- MIC ATCC 29302 (ATCC 29302; [2]): 0.25 µg/mL
- MIC ATCC 700221 (ATCC 700221; resistant to vancomycin, VanA type VRE, 18~22 h at 37° C.): >128 µg/mL
- MIC ATCC 51299 (ATCC 51299; low-level vancomycin-resistant (VanB type), 18~22 h at 37° C.): 0.5 µg/mL
- MIC ATCC 33186 (ATCC 33186; [2]): 0.25 µg/mL
- MIC ATCC 51559 (ATCC 51559; multidrug-resistant strain, VanA type VRE, 18~22 h at 37° C.): 256 µg/mL

Molecule: CC(C)(COP(=O)(O)OP(=O)(O)OC[C@H]1O[C@@H](n2cnc3c(N)ncnc32)[C@H](O)[C@@H]1OP(=O)(O)O)[C@@H](O)C(=O)NCCC(=O)NCCSC(=O)c1ccccc1 [benzoyl-CoA]
- binding to the enzyme (ITC) (Orf11*/Dbv8): does not bind

Molecule: CCCCCCCCCCCC(=O)SCCNC(=O)CCNC(=O)[C@H](O)C(C)(C)COP(=O)(O)OP(=O)(O)OC[C@H]1O[C@@H](n2cnc3c(N)ncnc32)[C@H](O)[C@@H]1OP(=O)(O)O [lauroyl-CoA]
- Kd (Orf11*; [1]): 4.1 ± 0.8 µM

Molecule: CCCCCCCCCC(=O)SCCNC(=O)CCNC(=O)[C@H](O)C(C)(C)COP(=O)(O)OP(=O)(O)OC[C@H]1O[C@@H](n2cnc3c(N)ncnc32)[C@H](O)[C@@H]1OP(=O)(O)O [decanoyl-CoA]
- Kd (Orf11*; [1]): 1 ± 0.1 µM

Molecule: CCCCCCCCCCCCCC(=O)SCCNC(=O)CCNC(=O)[C@H](O)C(C)(C)COP(=O)(O)OP(=O)(O)OC[C@H]1O[C@@H](n2cnc3c(N)ncnc32)[C@H](O)[C@@H]1OP(=O)(O)O [myristoyl-CoA]
- Kd (Orf11*): 5.9 ± 1.2 µM

Molecule: CCCC(=O)SCCNC(=O)CCNC(=O)[C@H](O)C(C)(C)COP(=O)(O)OP(=O)(O)OC[C@H]1O[C@@H](n2cnc3c(N)ncnc32)[C@H](O)[C@@H]1OP(=O)(O)O [butyryl-CoA]
- Kd (Orf11*): 111 ± 23 µM

Molecule: Tei pseudoaglycone [Tei pseudoaglycone 3]
- binding to the enzyme (ITC) (Orf11*/Dbv8): barely binds

Molecule: CCCCCCCC(=O)SCCNC(=O)CCNC(=O)[C@H](O)C(C)(C)COP(=O)(O)OP(=O)(O)OC[C@H]1O[C@@H](n2cnc3c(N)ncnc32)[C@H](O)[C@@H]1OP(=O)(O)O [octanoyl-CoA]
- Kd (Orf11*; [1]): 1 ± 0.1 µM

Molecule: CC(C(=O)O)C(=O)SCCNC(=O)CCNC(=O)[C@H](O)C(C)(C)COP(=O)(O)OP(=O)(O)OC[C@H]1O[C@@H](n2cnc3c(N)ncnc32)[C@H](O)[C@@H]1OP(=O)(O)O (stereo partly drawn) [methylmalonyl-CoA]
- binding to the enzyme (ITC) (Orf11*/Dbv8): does not bind

Molecule: CN[C@H](CC(C)C)C(=O)N[C@H]1C(=O)N[C@@H](CC(N)=O)C(=O)N[C@H]2C(=O)N[C@H]3C(=O)N[C@H](C(=O)N[C@H](C(=O)O)c4cc(O)cc(O)c4-c4cc3ccc4O)[C@H](O)c3ccc(c(Cl)c3)Oc3cc2cc(c3O[C@@H]2O[C@H](CO)[C@@H](O)[C@H](O)[C@H]2O[C@H]2C[C@](C)(N)[C@H](O)[C@H](C)O2)Oc2ccc(cc2Cl)[C@H]1O [Vancomycin, vancomycin]
- ED50 (E. faecalis (ATCC 51559); Enterococcus faecalis, ATCC51559, 48 h, read-out: ED50 against ATCC 51559): > 128 mg/kg
- MIC (ATCC 700802; 22 h, read-out: MIC ATCC 700802): 64 µg/mL (≈ 44.2 µM)
- MIC (ATCC 29302; 22 h, read-out: MIC ATCC 29302): 1 µg/mL (≈ 0.69 µM)
- MIC (ATCC 700221; Enterococcus, ATCC 700221 / VRE, 22 h, read-out: MIC ATCC 700221): > 128 µg/mL
- MIC (ATCC 51299; 22 h, read-out: MIC ATCC 51299): > 64 µg/mL
- MIC (ATCC 33186; 22 h, read-out: MIC ATCC 33186): 4 µg/mL (≈ 2.76 µM)
- MIC (ATCC 51559; Enterococcus, ATCC 51559 / VRE, 22 h, read-out: MIC ATCC 51559): 1020 µg/mL (≈ 707 µM)

Molecule: CC(C)(COP(=O)(O)OP(=O)(O)OC[C@H]1O[C@@H](n2cnc3c(N)ncnc32)[C@H](O)[C@@H]1OP(=O)(O)O)[C@@H](O)C(=O)NCCC(=O)NCCS [CoA 5, coenzyme A]
- binding to the enzyme (ITC) (Orf11*/Dbv8): barely binds

Molecule: CCCCCC(=O)SCCNC(=O)CCNC(=O)[C@H](O)C(C)(C)COP(=O)(O)OP(=O)(O)OC[C@H]1O[C@@H](n2cnc3c(N)ncnc32)[C@H](O)[C@@H]1OP(=O)(O)O [hexanoyl-CoA]
- Kd (Orf11*; [1]): 85.6 ± 9 µM

Molecule: CCCCCCCCCCCCCCCCCC(=O)SCCNC(=O)CCNC(=O)[C@H](O)C(C)(C)COP(=O)(O)OP(=O)(O)OC[C@H]1O[C@@H](n2cnc3c(N)ncnc32)[C@H](O)[C@@H]1OP(=O)(O)O [stearoyl-CoA]
- Kd (Orf11*; [1]): 4.3 ± 0.8 µM
